From patent US10434174B2, “Combination therapies using platinum agents and agents that target tumor-associated stroma or tumor cells” (BIOMED VALLEY DISCOVERIES, INC., priority 2014, dated 2019)
Square brackets hold non-standard residues; d marks the D form. Peptide text beside a SMILES is read from it. * marks the point of attachment. Dolaproine = CO[C@@H]([C@@H]1CCCN1)[C@@H](C)C(=O)O; Dil = CC[C@H](C)[C@H](NC)[C@@H](CC(=O)O)OC; X1 = C[C@@H](N*)[C@@H](O)c1ccccc1; NMeV = CN[C@H](C(=O)O)C(C)C

Tested on: OVCAR3 ovarian cancer model
Assay: M825 and M825-MMAE in OVCAR3 ovarian cancer model
Format: in vivo, mouse
Settings: 0.2 mg/kg, equivalent to maximum MMAE in the 10 mg/kg ADC group
Experimental: Treatment initiated when tumor volume reached approximately 120 mm^3. M825 was given i.v. at 10 mg/kg and M825-MMAE was given i.v. at 1, 3, or 10 mg/kg, 2 times per week for 3.5 weeks. […] The 10 mg/kg ADC group was redosed on Day 56, 2 times per week.

With CC[C@H](C)[C@@H]([C@@H](CC(=O)N1CCC[C@H]1[C@H](OC)[C@@H](C)C(=O)N[C@H](C)[C@@H](O)c1ccccc1)OC)N(C)C(=O)[C@@H](NC(=O)[C@@H](NC)C(C)C)C(C)C [MMAE] (H-[NMeV]V[Dil][Dolaproine]-X1) as the compound, how does the tumor growth read?
Its tumor growth is “No effect”.
